Source: ChEMBL document CHEMBL1201862, “PubChem BioAssay data set” (2004)
Active and inactive are the calls of the source.

Tests used:
Vero [1] = assay: cells; assay type: functional, cell-based; conditions: Chlorocebus sabaeus
Vero [2] = assay: cells; assay type: functional; conditions: Chlorocebus sabaeus
Paired box protein Pax-8 = Paired box protein Pax-8 (Homo sapiens, UniProt Q06710); assay: inhibitors of PAX8-driven TPO luciferase reporter, dose response, RMG-I cells, cherry-pick (AID 687027); assay type: functional, cell-based;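 note: luciferase reporter driven by Pax8 target thyroperoxidase promoter measured by SteadyGlo luminescence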
Sequence of Paired box protein Pax-8 (Q06710 whole entry): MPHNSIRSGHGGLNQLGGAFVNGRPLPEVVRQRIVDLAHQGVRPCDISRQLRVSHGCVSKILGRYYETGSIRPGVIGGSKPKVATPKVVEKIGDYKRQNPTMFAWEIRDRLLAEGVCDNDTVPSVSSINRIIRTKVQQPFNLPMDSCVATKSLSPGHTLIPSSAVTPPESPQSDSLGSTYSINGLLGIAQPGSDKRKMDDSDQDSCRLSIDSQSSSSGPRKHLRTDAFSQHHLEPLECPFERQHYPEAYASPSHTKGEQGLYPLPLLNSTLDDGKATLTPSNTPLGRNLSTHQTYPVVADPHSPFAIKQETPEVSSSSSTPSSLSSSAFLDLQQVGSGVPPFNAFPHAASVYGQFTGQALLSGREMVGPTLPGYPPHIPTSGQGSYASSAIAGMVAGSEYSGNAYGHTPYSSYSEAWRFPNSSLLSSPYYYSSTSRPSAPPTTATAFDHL

Cytochrome P450 3A4 = Cytochrome P450 3A4 (Homo sapiens, UniProt P08684); conditions: Potency;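 note: confirmatory qHTS run detecting inhibitors and substrates of CYP3A4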
Sequence of Cytochrome P450 3A4 (P08684 whole entry): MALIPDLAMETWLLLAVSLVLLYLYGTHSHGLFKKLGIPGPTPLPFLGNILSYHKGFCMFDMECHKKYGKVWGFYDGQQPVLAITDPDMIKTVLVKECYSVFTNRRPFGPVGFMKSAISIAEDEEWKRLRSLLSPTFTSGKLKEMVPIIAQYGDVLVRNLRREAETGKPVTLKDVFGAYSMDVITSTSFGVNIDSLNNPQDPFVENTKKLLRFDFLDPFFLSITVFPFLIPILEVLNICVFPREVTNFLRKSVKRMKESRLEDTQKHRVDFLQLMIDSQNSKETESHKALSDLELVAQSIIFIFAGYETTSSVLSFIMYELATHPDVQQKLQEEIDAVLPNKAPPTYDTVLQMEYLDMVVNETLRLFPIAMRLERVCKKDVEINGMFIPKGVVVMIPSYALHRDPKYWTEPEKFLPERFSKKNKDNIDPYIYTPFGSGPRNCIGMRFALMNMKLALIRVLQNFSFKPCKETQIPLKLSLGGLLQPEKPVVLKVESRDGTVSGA

[3] = HEp-2 cell cytotoxicity, dose response, cytotoxicity control for RSV inhibitor project, HTS (AID 2410); assay type: functional; conditions: human respiratory syncytial virus
cells [4] = assay type: functional, cell-based
cells [5] = assay type: functional, cell-based; remark: listed apart in the source
[6] = biological target: T1, Carboxy-terminal domain RNA polymerase II polypeptide A small phosphatase 1 (Homo sapiens, UniProt Q9GZU7); assay: inhibitors of CTDSP1, concentration-response testing, biochemical assay, absorbance-based, actives from ultra-high-throughput screening (AID 540297); assay type: functional
T1 sequence (Q9GZU7 whole entry): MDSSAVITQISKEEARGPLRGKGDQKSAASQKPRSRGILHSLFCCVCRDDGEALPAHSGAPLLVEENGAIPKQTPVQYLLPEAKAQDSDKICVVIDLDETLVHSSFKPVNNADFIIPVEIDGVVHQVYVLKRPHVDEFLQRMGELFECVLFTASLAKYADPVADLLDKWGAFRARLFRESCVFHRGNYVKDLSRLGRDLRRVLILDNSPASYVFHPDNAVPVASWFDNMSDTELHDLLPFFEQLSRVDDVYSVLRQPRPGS

Large T antigen = Large T antigen (Simian virus 40, UniProt P03070); assay type: functional, Betapolyomavirus macacae;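 note: Confirmatory-stage PubChem screen for compounds that inhibit SV40 T antigen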
Sequence of Large T antigen (P03070 whole entry, the tested form may be a part): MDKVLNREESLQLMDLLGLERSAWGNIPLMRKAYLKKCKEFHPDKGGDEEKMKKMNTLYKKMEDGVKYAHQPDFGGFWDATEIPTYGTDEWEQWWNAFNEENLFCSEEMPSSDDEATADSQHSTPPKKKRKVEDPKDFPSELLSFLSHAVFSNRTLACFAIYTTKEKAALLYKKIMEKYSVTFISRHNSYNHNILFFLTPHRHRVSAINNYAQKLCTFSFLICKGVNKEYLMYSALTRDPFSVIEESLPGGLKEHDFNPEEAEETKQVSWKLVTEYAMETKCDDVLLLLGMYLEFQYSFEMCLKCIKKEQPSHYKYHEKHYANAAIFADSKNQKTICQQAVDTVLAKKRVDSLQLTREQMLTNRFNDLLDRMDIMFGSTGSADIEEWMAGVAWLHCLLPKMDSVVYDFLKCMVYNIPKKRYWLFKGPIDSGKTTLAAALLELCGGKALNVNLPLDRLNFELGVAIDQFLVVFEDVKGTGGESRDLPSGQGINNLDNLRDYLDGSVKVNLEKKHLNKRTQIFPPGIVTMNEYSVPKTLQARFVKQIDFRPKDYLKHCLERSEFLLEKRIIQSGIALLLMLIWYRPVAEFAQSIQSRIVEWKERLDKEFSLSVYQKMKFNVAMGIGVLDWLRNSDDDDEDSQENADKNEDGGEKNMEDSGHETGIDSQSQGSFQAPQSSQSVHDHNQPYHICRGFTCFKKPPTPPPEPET

[7] = biological target: Photoreceptor-specific nuclear receptor (Homo sapiens, UniProt Q9Y5X4); assay type: functional, cell-based;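 note: CHO-S cells with Gal4-NCOR and VP16-NR2E3 two-hybrid luciferase reporter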
[8] = biological target: T2, Polyadenylate-binding protein 1 (Homo sapiens, UniProt P11940); assay: PABP1 MLLE–PAM2 interaction inhibitors, dose response, miRNA deadenylation inhibitor project, biochemical, fluorescence polarization, Cy5-PAM2 peptide, secondary (AID 602260); assay type: functional; conditions: read-out: IC50_Mean
T2 sequence (P11940 whole entry): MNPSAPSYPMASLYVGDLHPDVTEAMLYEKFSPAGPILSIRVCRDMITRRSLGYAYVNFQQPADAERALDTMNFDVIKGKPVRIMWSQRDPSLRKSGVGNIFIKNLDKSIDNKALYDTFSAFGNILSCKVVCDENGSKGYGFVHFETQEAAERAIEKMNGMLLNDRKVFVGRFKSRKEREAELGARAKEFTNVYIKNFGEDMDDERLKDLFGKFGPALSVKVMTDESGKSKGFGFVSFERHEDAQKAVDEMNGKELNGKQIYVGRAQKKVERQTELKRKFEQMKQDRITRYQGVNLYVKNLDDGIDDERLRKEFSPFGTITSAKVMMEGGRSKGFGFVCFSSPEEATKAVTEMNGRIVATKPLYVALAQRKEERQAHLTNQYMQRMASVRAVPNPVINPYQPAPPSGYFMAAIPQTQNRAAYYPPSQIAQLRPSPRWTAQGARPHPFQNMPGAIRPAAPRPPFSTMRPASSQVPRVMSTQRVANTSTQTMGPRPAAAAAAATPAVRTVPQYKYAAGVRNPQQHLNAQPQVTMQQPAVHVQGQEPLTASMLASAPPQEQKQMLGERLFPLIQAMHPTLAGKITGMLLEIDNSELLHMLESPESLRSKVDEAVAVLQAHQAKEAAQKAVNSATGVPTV

[9] = biological target: T2, Polyadenylate-binding protein 1; assay: PABP1 MLLE–PAM2 binding inhibitor potency, dose response, biochemical, fluorescence polarization, FITC-PAM2 peptide (AID 602259); assay type: functional; conditions: read-out: IC50_Mean
[10] = biological target: FAD-linked sulfhydryl oxidase ALR (Homo sapiens, UniProt P55789); assay: inhibitors of human ALR sulfhydryl oxidase, dose response, biochemical, H2O2 detection, luminescence, cherry-pick (AID 493248)
Sequence of FAD-linked sulfhydryl oxidase ALR (P55789 whole entry): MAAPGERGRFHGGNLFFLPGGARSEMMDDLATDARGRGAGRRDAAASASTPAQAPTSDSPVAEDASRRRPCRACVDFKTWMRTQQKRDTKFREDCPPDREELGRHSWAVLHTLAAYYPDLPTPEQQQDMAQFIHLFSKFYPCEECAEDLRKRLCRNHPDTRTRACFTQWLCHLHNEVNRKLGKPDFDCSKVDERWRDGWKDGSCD

Protein skinhead-1 = biological target: T3, Protein skinhead-1 (Caenorhabditis elegans, UniProt P34707); assay type: functional
T3 sequence (P34707 whole entry): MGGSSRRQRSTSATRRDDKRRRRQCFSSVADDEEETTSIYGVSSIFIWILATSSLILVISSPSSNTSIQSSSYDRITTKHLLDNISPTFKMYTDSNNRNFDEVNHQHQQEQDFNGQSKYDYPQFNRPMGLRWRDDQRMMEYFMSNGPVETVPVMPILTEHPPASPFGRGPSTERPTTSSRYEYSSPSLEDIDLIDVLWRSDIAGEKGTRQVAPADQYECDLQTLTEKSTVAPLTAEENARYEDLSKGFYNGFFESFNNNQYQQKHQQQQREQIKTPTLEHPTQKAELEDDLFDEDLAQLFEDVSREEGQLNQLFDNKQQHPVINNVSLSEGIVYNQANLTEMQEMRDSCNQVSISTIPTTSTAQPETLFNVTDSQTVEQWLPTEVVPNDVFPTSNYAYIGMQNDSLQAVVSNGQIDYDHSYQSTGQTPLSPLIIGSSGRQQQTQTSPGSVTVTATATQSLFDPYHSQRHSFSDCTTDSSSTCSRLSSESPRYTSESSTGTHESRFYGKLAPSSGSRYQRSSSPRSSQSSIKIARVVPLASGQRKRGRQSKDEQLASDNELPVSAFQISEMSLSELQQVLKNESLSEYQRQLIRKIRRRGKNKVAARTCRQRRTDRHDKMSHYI

cells [11] = assay type: functional, cell-based; remark: listed apart in the source
cells [12] = assay type: functional, cell-based; remark: listed apart in the source
[13] = microbe, parasite or virus in culture; assay type: functional; conditions: Mycobacterium tuberculosis
Fatty acid synthase [14] = biological target: T4, Fatty acid synthase (Homo sapiens, UniProt P49327); assay: FAS thioesterase domain inhibitors, dose response, biochemical, endpoint fluorescence intensity, uHTS hits (AID 624327); assay type: functional;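 note: fluorescence from hydrolysis of an O-methyl fluorescein acyl ester substrate by the enzyme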
T4 sequence (P49327 whole entry, the tested form may be a part): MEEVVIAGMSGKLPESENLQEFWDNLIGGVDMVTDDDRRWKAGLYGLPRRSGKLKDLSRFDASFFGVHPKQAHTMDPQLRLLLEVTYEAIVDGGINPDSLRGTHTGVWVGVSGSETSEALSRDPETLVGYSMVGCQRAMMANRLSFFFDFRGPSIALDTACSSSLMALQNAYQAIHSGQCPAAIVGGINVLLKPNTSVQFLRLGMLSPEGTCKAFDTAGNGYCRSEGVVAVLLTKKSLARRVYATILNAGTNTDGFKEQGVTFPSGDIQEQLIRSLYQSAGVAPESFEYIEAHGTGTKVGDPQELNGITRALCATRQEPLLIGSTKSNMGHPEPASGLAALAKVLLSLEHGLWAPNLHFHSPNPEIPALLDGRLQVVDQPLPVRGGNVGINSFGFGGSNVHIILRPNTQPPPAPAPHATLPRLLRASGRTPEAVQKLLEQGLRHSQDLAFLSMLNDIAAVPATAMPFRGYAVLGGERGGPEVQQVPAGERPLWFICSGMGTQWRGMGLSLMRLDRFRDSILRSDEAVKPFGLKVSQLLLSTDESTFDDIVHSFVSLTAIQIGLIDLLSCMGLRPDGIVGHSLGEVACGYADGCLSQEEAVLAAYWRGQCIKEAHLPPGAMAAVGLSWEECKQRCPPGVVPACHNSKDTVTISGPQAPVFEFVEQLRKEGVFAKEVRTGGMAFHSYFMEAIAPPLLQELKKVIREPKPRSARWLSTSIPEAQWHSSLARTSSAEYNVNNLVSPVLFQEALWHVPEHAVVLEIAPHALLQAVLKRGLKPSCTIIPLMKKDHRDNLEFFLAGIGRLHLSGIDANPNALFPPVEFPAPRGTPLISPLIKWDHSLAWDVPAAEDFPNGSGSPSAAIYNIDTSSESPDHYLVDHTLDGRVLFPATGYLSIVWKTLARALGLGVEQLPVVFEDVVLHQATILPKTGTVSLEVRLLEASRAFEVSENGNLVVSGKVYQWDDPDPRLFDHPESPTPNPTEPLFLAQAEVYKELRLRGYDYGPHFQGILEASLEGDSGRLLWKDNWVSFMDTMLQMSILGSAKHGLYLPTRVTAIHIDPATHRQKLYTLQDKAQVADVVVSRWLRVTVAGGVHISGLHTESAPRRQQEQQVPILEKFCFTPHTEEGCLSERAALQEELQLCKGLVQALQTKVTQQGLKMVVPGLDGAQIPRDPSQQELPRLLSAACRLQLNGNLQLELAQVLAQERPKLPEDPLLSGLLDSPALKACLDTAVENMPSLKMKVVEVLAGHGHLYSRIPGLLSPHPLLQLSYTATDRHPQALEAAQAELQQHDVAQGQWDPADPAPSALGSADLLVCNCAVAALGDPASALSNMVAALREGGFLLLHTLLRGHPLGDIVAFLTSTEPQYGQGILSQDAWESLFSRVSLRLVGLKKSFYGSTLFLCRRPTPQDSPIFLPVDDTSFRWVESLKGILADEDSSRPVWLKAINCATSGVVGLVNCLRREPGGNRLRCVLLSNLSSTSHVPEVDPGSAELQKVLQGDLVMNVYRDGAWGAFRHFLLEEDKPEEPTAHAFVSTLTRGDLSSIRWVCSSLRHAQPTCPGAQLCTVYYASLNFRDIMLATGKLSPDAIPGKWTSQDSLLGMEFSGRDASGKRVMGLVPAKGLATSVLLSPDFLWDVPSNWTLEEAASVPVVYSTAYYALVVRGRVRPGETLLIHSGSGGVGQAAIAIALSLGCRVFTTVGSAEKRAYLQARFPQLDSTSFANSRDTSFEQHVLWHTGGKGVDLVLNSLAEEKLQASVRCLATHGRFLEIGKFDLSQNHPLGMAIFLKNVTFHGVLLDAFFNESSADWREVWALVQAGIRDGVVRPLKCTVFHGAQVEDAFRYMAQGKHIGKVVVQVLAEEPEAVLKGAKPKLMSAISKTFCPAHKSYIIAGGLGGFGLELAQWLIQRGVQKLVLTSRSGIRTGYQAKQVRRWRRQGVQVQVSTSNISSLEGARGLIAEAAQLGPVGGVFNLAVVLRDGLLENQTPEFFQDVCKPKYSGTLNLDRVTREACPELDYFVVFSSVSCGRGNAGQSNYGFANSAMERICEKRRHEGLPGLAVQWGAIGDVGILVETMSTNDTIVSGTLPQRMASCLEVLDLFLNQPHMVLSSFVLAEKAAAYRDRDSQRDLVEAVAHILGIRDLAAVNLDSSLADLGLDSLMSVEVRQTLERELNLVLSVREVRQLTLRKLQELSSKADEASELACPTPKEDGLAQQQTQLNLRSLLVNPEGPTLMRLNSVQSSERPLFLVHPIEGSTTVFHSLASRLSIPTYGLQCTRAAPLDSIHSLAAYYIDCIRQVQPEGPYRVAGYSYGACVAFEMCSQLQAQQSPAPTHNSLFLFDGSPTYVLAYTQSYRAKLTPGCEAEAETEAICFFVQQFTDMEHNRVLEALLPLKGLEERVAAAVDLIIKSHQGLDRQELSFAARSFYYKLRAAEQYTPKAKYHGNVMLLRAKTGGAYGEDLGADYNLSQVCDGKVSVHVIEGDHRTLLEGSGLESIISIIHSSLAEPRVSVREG

Fatty acid synthase [15] = biological target: T4, Fatty acid synthase; assay: FAS thioesterase domain inhibitors, dose response, biochemical, kinetic fluorescence intensity (AID 624326); assay type: functional;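 note: rate of fluorescence rise from hydrolysis of a fluorogenic O-methyl fluorescein ester substrate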

C[C@]12CC[C@H](O)C[C@@H]1CC[C@@H]1[C@@H]2CC[C@]2(C)[C@@H](C3=CC(=O)OC3)CC[C@]12O
IC50 (Vero [1]): < 0.05 µM (active) | CC50 (Vero [2]): 1.65 µM (active) | AC50 (Paired box protein Pax-8): 2.09 µM (active)

COC(=O)c1ccc(CN2[C@@H]3C[C@@H](O)CC[C@@H]3C[C@H]2C(=O)OC)cc1
AC50 (Cytochrome P450 3A4): 15.8 µM (inconclusive)

COc1ccc(CNC(=O)C(C)Cc2ccccc2)cc1O (stereo unspecified)
AC50 (Cytochrome P450 3A4): 6.31 µM (inconclusive)

Cc1ccc2nc(-c3ccc(N)cc3)sc2c1S(=O)(=O)O
AC50 (Cytochrome P450 3A4): 31.6 µM (inconclusive)

N#C/C(=C/c1ccc(N2CCCCC2)o1)C(=O)NCCc1c[nH]c2ccccc12
CC50 (Vero [2]): > 25 µM (active) | CC50 [3]: 49.6 µM (active)

O=C(NCCc1ccccc1)C1CCN(C(=O)c2ccc([N+](=O)[O-])cc2)CC1
IC50 (cells [4]): > 29.9 µM (inactive) | EC50 (cells [5]): > 29.9 µM (inactive)

Nc1c(C(=O)OCC(=O)Nc2cccc([N+](=O)[O-])c2)[nH]c(=O)[nH]c1=O
IC50 [6]: 7.55 µM (active)

O=C(NCCCN1CCOCC1)c1ccc(/C=C2\Oc3ccccc3N(Cc3ccccc3F)C2=O)cc1
IC50 (Vero [1]): 21.9 µM (active)

O=[N+]([O-])c1ccc2c(c1N1CCCCC1)=NC1(CCCCC1)[N+]=2[O-]
IC50 (Large T antigen): > 100 µM (active)

COc1cc(/C=C2\C(C)=C(C#N)c3nc(N)c(C#N)c(C)c32)ccc1OCC(=O)O
IC50 (Large T antigen): 58.1 µM (active)

CC(=O)N1c2ccc(S(=O)(=O)N3CCC(C(=O)Nc4cccc(Cl)c4)CC3)cc2CC1C (stereo unspecified)
IC50 [7]: 1.47 µM (active)

COc1ccc(NC2CCCN(C(=O)CSc3ccccc3)C2)cc1 (stereo unspecified)
IC50 (Large T antigen): 7.48 µM (active)

Cn1c(=O)c2nc(Nc3ccccc3)[nH]c2n(C)c1=O
IC50 (cells [4]): > 29.9 µM (inactive) | EC50 (cells [5]): > 29.9 µM (inactive)

CC(C)(C)NC(=O)CN(C(=O)CCN1CCCc2ccccc21)C(C)(C)C
IC50 [8]: > 66 µM (inactive) | IC50 [9]: > 66 µM (inactive) | AC50 [10]: 4.37 µM (active) | IC50 (Protein skinhead-1): > 100 µM (inactive)

CCOC(=O)Cc1csc(SCC(=O)Nc2sc3c(c2C(N)=O)CCC3)n1
IC50 [6]: 4.63 µM (active)

Cc1ccccc1CN1C(=O)CSc2ccc(C(=O)N3CCOCC3)cc21
EC50 (cells [11]): > 350 µM (not active) | EC50 (cells [12]): > 350 µM (not active)

CCN1CSC(=S)N(Cc2ccccc2)C1
CC50 (Vero [2]): 16.1 µM (active) | CC50 [13]: 20.7 µM (active)

COc1ccc(CN(Cc2cc3cccc(C)c3n3nnnc23)C(=O)N2CCOCC2)cc1
IC50 (Fatty acid synthase [14]): 18.8 µM (active) | IC50 (Fatty acid synthase [15]): 26.4 µM (inactive)

CS(=O)(=O)c1ccc2nc(NC(=O)C3CC(=O)N(c4ccc(F)cc4)C3)sc2c1 (stereo unspecified)
EC50 (cells [11]): > 350 µM (not active) | EC50 (cells [12]): > 350 µM (not active)
